# Source: paper PMC12299847, “Macroalgae-Inspired Brominated Chalcones as Cosmetic Ingredients with the Potential to Target Skin Inflammaging” (Marine Drugs, 2025)
# Key:
# [1] = tested on: NO production in LPS-stimulated RAW 264.7 macrophages; experiment: NO production (Griess assay) in LPS-stimulated macrophages; type: cell-based, murine; details: Mus musculus, RAW264.7, 24 h, RAW 264.7, LPS 100 ng/mL, Griess
# Experimental: The anti-inflammatory potential of chalcones 1–7 was evaluated in macrophages cultured in the presence or absence (control) of LPS, as depicted in Figure 4. Under basal conditions (unstimulated, control), macrophages produce low levels of nitrites (≈12%). […] Each chalcone was tested at concentrations previously established as non-cytotoxic in macrophages, trying to ensure that observed changes in NO levels were not due to reduced cell viability.
# The production of NO was evaluated by measuring nitrite accumulation in culture supernatants using the previously described Griess assay. Cells were seeded at a concentration of 5.0 × 10^4 cells/mL in a 96-well plate (200 μL/well) and allowed to stabilize overnight at 37 °C. Afterwards, the cells were treated with different concentrations of compound solutions and pre-incubated for 1 h at 37 °C. Subsequently, an LPS in PBS solution was added to each well, achieving a final concentration of 100 ng/mL, and the plate was left to incubate for 24 h. An amount of 150 μL of the cell culture supernatant was then transferred to a fresh 96-well plate, and an equal amount of Griess reagent [comprising a 1:1 mixture of 1% (w/v) sulphanilamide in 5% (v/v) phosphoric acid and 0.1% (w/v) naphthylethylenediaminedihydrochloride] was added. Following a 30 min incubation at room temperature in the dark, the absorbance was recorded at 550 nm using a Biotek Synergy HT plate reader (Biotek, CA, USA). The nitrite concentration in the supernatants was determined by comparing the absorbance of each sample to a sodium nitrite standard curve. The results, obtained from at least three independent experiments performed in duplicate, were expressed as a percentage of NO production by cells versus chemical concentration, relative to LPS condition (100%).
# Figure 4 NO production by macrophages treated with LPS (100 ng/mL) or not (control) in the presence of chalcones 1–7. Results are expressed as a percentage of NO production by cells treated with LPS (100 ng/mL). Each value represents the mean ± SEM of four independent experiments in duplicate. Statistical analysis: one ANOVA with Dunnett’s multiple comparisons test, where p< 0.05 was considered significant. *** p < 0.005, relative to the control, and ^# p < 0.05, ^## p < 0.01, ^### p < 0.0005, and ^#### p < 0.0001, relative to LPS condition.
# [2] = tested on: HaCaT cells transfected with an Nrf2 luciferase reporter construct; experiment: Cell viability (resazurin) in KeratinoSens cells; type: cell-based, human
# Experimental: Selected compounds (chalcones 1 and 2), and the positive control, DMF, were dissolved in sterile DMSO. Intermediate dilutions were prepared in culture medium, including the final concentration to be added to the 96-well plate, with a final volume of 200 µL per well. The KeratinoSens™ assay was conducted as previously described. In brief, cells were seeded at a density of 10,000 cells per well in 96-well white opaque plates (Greiner Bio-One GmbH, cat. no. 655083, Kremsmünster, Austria) and incubated for 24 h. The medium was then replaced with fresh medium containing 1% FBS and the test compounds, and cells were incubated for an additional 24 and 48 h. DMF was used as the positive control since it is a known Nrf2 activator. Cell viability was assessed in the same cells using resazurin. After 20 or 44 h of exposure to the test compounds, 50 µM of resazurin solution (in sterile PBS) was added to each well, and the plates were incubated for 4 h at 37 °C, 5% CO2 Following the resazurin incubation, the supernatant was transferred to a transparent 96-well plate, and absorbance was measured at 570 and 620 nm using a Synergy HT multi-mode microplate reader (BioTek, Bad Friedrichshall, Germany). […] Luminescence was then measured using a FLUOstar OMEGA Microplate Reader (BMG Labtech GmbH, Ortenberg, Germany). […]
compound,measurement,setting,value
COc1cc(Br)c(/C=C/C(=O)c2cc(OC)c(OC)cc2Br)cc1OC [Chalcone 1],IC50,[1],0.58 ± 0.12 µM
same,effect on cell viability,"[2]; 24 h, 5 µM and 7.5 µM",without affecting cell viability
same,effect on cell viability,[2]; 48 h,decrease in cell viability
